Test results: patent US20220267753A1, “RATIONAL THERAPEUTIC TARGETING OF ONCOGENIC IMMUNE SIGNALING STATES IN MYELOID MALIGNANCIES VIA THE UBIQUITIN CONJUGATING ENZYME UBE2N” (CHILDREN'S HOSPITAL MEDICAL CENTER, priority 2019, published 2022)

Assays:
[1] = molecular target: T1, UBE2N C87S (Homo sapiens, UniProt P61088, C87S); experiment: Differential scanning fluorimetry (DSF); type: binding
T1 construct: purchased Genescript
Description: (§1) Recombinant UBE2N (2 .tg; Life sensors #UB218) in 3 .tl of buffer containing 20 mM Tris-HCl pH 7.4, 10 mM DTT, 10% glycerol, 150 mM NaCl and 0.02% DMSO as well as six samples of 1 .tg UBE2N mixed with 0.2 .tg of UC-764864 or UC-764865 were diluted to 50 ng/uL in 0.1% formic acid (FA) in preparation of MALDI-TOF analysis. Two .tl aliquots from the samples were used to make a 1:5 dilution with MALDI matrix (5 mg/mL sinapic acid in 60% ACN/0.1% formic acid) with 1 .tL spotted onto the target plate for analysis. For UBE2N C87S mutant, recombinant protein was purchased from Genescript. 2 micrograms of protein as well as 3 samples of UBE2N C87S were mixed with 0.4 micrograms of UC-764864 and UC-764865 in 10 microliters of buffer containing 20 mM Tris HCl pH 7.4, 1 mM DTT, 150 mM NaCl and ˜0.01% of DMSO in each sample. All mixtures were brought up to 40 ul by adding 30 ul of 0.1% formic acid (FA). 5 ul aliquots from the samples were used to make a 1:5 dilution with MALDI matrix as described above. […] The temperature was raised in 1° C. increments from 25° C. to 95° C. and fluorescence was measured at 530 nm. Derivative Tm was determined using Protein Thermal Shift Software version 1.3 by Applied Biosystems and then were analyzed with Prism 6 (GraphPad Software Inc.).

[2] = molecular target: T2, UBE2N wild type (Homo sapiens, UniProt P61088); experiment: Differential scanning fluorimetry (DSF); type: binding; settings: recombinant UBE2N protein
T2 construct: purchased Life sensors UB218
T2 sequence (P61088 1-152): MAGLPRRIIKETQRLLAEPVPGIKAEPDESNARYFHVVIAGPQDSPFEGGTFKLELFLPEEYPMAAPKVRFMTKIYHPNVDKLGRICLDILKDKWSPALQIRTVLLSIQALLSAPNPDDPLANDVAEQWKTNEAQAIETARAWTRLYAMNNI
Description: as §1

[3] = system: MOLM-13 cells; experiment: MOLM-13 xenograft in NSG mice; type: in vivo; settings: 2 mg/kg i.p.
Description: Lentivirally-infected MOLM-13 cells or HL-60 cells (1.9×10^4 cells per recipient) expressing a non-silencing control shRNA or UBE2N specific shRNAs were tail vein transplanted into sublethally irradiated NOD-scid IL2Rγ^−/− (NSG) mice (250 rads whole body irradiation). Moribund mice were sacrificed and assessed for leukemic burden measurements. BM and spleen cells were analyzed for GFP expression by flow cytometry using a BD FACS Canto System (BD Biosciences, San Jose, Calif.). Bone marrow aspirates were taken 2 weeks after transplantation for smears or to assess engraftment by flow cytometry. For survival analysis after UBE2N inhibitors treatment, NSG mice (n=10/group) were injected with 1×10^4 MOLM-13 cells and treated with 4 doses of 2 mg/kg/d of UC-764865, or vehicle control (0.2% tween 20 in water) for 2 weeks (8 doses total). Time of death was recorded, and Kaplan Meier survival analysis was performed using GraphPad Prism version 7.00 for Mac (GraphPad Software, La Jolla Calif. USA). Engraftment was assessed in bone marrow (BM) at one week after transplantation by flow cytometric determination of human CD33 (BDPharmingen 555450, Franklin Lakes, N.J.), human CD45 and/or human CD15. Briefly, mice were euthanized with carbon dioxide following the AVMA Guidelines for the Euthanasia of Animals and BM cells were immediately extracted by breaking the femurs with a mortar and pestle. Red blood cells were lysed with RBC lysis buffer (555899 BD Biosciences) and washed twice with Phosphate-Buffered Saline (PBS) (Dulbecco's 45000-446 (PK)), 2% Fetal Bovine Serum (FBS). 1×10^6 cells were stained with human CD33 (BDPharmighen 555450), murine CD45 (BDPharmighen 557659) by incubating in PBS, 0.2% FBS for 30 minutes on ice in the dark. After staining the cells were washed once with PBS and resuspended in incubation buffer with propidium iodine. Cells were analyzed using a BD FACS Canto System (BD Biosciences, San Jose, Calif.). Alternatively, 1×10^4 MOLM-13 cells were xenotransplanted in NSG mice without conditioning (n=10/group). Treatment with UBE2N inhibitors was started one day after transplant for […] (5 days dosing of 2 mg/kg/d, resting 2 days, 2 days dosing of 2 mg/kg/d) by intraperitoneal injections (IP). All the mice were sacrificed at day 10 post transplantation and engraftment of MOLM-13 cells was analyzed in spleen and BM by staining for human CD15 (BDPharmighen 551376) as described above. For patient-derived xenografts (PDX), 1×106 to 6×10^6 cells were transplanted via tail vain in NSGS mice conditioned with busulfan (final dose of 30 mg/kg) 24 hours prior to transplantation. Treatment with UC-764865 was started 3 days after transplantation with 5 weekly doses of 25 mg/kg UC-764865 or vehicle control (methyl-β-cyclodextrin, 50 mg/ml) via LP during a period of 2-6 weeks. BM aspirates were performed once a week and determination of engraftment was performed as described above.

T1 sequence (P61088 whole entry C87S): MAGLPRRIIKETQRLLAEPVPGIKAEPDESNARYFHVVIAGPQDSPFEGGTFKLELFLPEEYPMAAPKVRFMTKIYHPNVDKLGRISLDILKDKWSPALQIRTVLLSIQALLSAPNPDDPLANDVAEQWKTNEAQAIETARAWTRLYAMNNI

SMILES: COc1ccc(C(=O)C=CSc2nc3ccc(C)cc3[nH]2)cc1 [UC-764865, 1-(4-methoxyphenyl)-3-[(6-methyl-1H-benzimidazol-2-yl)sulfanyl]prop-2-en-1-one]
- change in Tm of UBE2N(C87S) [1]: did not change
- change in melting temperature (Tm) [2]: −2 C degrees
- onset of leukemia ([3]; 4 doses/week for 2 weeks, vehicle 8 days): 18 days
- overall median survival ([3]; 4 doses/week for 2 weeks, vehicle 17 days, P<0.0001): 21 days
- reduction of leukemic burden (percent of human CD15+ cells) in BM ([3]; 7 doses, day 10 post transplantation, P=0.03): 40%
- reduction of leukemic burden (percent of human CD15+ cells) in spleen ([3]; 7 doses, day 10 post transplantation, P=0.3): 70%
- spleen weight at time of death ([3]; vehicle 63±29 mg, P=0.0001): 18 ± 6 mg
- reduction of splenomegaly at time of death ([3]; vs vehicle): 80%
